In general, inhibition refers to the change of the read-out against control, counted positive when it falls.

A value given as a limit tells only on which side of the number the result lay.

What all share (assay): In vitro competitive activity-based protein profiling (gel-based, FP-Rh or HT-01 probe)
Assay type in all cases: biochemical

Assay [1] deals with T1, ABHD6 (Mus musculus, UniProt Q8R2Y0).
T1 construct: Proteomes (mouse brain membrane fraction or cell lysates); from tissue; host or cells: mouse brain membrane fraction (or cell lysates, not specified)
T1 sequence (Q8R2Y0 1-336): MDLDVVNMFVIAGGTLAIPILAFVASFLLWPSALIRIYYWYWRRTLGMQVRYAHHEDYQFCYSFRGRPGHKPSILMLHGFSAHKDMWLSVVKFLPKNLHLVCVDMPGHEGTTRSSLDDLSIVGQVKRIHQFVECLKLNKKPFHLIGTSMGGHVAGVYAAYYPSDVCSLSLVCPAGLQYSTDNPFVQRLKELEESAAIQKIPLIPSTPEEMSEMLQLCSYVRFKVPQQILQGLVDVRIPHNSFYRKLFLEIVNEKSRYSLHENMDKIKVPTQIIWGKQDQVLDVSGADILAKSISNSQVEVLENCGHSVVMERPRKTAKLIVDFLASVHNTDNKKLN
The note with it: for inhibition at 1 µM: 1 μM inhibitor, read-out: % Inhibition at 1 μM, C = ABHD6; for inhibition at 10 µM: 10 μM inhibitor, read-out: % Inhibition at 10 μM, C = ABHD6. In outline: (§1)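 Steps: inhibitor dilutions + proteome (1.0 mg/mL), 30 min, 37° C; add FP-Rh or HT-01 (50 μM DMSO stock), 30 min, 37° C; quench in SDS buffer; SDS-PAGE; gel imaging; band densitometry.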

The target in assay [2] is T2, FAAH (Mus musculus, UniProt O08914).
T2 construct: Proteomes (mouse brain membrane fraction or cell lysates); from tissue; host or cells: mouse brain membrane fraction (or cell lysates, not specified)
T2 sequence (O08914 1-579): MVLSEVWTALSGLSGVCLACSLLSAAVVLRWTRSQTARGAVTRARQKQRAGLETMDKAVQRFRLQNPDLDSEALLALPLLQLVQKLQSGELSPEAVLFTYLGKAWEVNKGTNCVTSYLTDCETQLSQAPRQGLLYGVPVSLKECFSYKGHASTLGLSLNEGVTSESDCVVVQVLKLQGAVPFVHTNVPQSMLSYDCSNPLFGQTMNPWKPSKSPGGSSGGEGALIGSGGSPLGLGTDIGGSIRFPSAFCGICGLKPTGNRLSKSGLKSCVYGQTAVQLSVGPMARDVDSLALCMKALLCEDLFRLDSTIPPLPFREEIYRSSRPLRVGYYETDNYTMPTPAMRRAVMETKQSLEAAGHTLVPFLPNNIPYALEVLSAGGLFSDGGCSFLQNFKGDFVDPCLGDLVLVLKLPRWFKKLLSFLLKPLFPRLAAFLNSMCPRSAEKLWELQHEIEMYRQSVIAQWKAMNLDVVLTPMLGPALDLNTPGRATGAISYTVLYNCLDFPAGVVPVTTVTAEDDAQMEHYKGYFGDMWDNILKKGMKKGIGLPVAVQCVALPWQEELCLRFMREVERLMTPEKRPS
The note with it: for inhibition at 1 µM: 1 μM inhibitor, read-out: % Inhibition at 1 μM, B = FAAH; for inhibition at 10 µM: 10 μM inhibitor, read-out: % Inhibition at 10 μM, B = FAAH. In outline: as §1

The target in assay [3] is T3, MAGL (Mus musculus, UniProt O35678).
T3 construct: Proteomes (mouse brain membrane fraction or cell lysates); from tissue; host or cells: mouse brain membrane fraction (or cell lysates, not specified)
T3 sequence (O35678 1-303): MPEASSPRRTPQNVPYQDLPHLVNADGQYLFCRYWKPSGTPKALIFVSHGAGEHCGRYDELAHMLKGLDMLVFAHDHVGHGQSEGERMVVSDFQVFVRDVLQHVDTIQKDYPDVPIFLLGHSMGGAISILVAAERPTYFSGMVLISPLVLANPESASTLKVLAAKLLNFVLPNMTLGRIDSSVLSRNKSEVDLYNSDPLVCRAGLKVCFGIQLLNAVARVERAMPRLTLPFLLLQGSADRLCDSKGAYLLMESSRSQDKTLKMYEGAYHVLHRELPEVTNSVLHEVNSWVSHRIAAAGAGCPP
The settings on record: for inhibition at 1 µM: 1 μM inhibitor; for inhibition at 10 µM: 10 μM inhibitor. In outline:
as §1

Assay [4] addresses T4, PLA2G7 (Mus musculus, UniProt Q60963).
T4 construct: Proteomes (mouse brain membrane fraction or cell lysates); from tissue; host or cells: mouse brain membrane fraction (or cell lysates, not specified)
T4 sequence (Q60963 22-440): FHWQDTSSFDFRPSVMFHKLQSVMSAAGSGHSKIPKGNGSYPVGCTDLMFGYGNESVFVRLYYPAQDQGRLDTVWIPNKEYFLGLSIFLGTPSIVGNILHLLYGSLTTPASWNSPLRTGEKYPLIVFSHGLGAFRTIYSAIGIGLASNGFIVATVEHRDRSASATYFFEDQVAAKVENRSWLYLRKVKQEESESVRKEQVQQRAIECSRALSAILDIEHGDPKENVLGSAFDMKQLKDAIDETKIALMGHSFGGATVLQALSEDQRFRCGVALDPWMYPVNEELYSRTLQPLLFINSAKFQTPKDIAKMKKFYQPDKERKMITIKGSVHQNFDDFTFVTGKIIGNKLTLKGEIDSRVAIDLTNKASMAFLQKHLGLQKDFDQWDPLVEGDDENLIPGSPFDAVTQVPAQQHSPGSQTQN
The settings on record: for inhibition at 1 µM: 1 μM inhibitor, read-out: % Inhibition at 1 μM, D = PLA2G7; for inhibition at 10 µM: 10 μM inhibitor, read-out: % Inhibition at 10 μM, D = PLA2G7. In outline: as §1

For the molecule `N#Cc1cnn(C(=O)N2CCN(Cc3ccc(-c4ccccc4)cc3)CC2)c1` [Example 24, 1-(4-([1,1′-Biphenyl]-4-ylmethyl)piperazine-1-carbonyl)-1H-pyrazole-4-carbonitrile], the inhibition at 1 µM in assay [1], in assay [2], in assay [3] and in assay [4] was > 75% in each case. Moreover, the inhibition at 10 µM in assay [1], in assay [2], in assay [3] and in assay [4] was > 75% in each case.

Regarding `CC(C)(C)OC(=O)N1CCCN(C(=O)n2cccn2)CC1` [Example 25, tert-Butyl 4-(1H-pyrazole-1-carbonyl)-1,4-diazepane-1-carboxylate], the inhibition at 1 µM in assay [1], in assay [2], in assay [3] and in assay [4] was < 25% each time. Besides, the inhibition at 10 µM in assay [1] is 25 to 75%; in assay [2], < 25%; in assay [3], < 25%; in assay [4], < 25%.

`Cc1cnn(C(=O)N2CCCN(C(=O)OC(C)(C)C)CC2)c1` [Example 26, tert-Butyl 4-(4-methyl-1H-pyrazole-1-carbonyl)-1,4-diazepane-1-carboxylate]: the inhibition at 1 µM in assay [1] is 25 to 75%; in assay [2], 25 to 75%; in assay [3], < 25%; in assay [4], < 25%. The inhibition at 10 µM in assay [1] is > 75%; in assay [2] it was > 75%; in assay [3] it was 25 to 75%; in assay [4], < 25%.

As for `CC(C)(C)OC(=O)N1CCCN(C(=O)n2cc(C#N)cn2)CC1` [Example 27, tert-Butyl 4-(4-cyano-1H-pyrazole-1-carbonyl)-1,4-diazepane-1-carboxylate], the inhibition at 1 µM in assay [1], in assay [2], in assay [3] and in assay [4] was > 75% each time. Besides, the inhibition at 10 µM in assay [1], in assay [2], in assay [3] and in assay [4] was > 75% throughout.

In the case of `CN(CCN(C)C(=O)n1cccn1)C(=O)OC(C)(C)C` [Example 28, tert-Butyl methyl(2-(N-methyl-1H-pyrazole-1-carboxamido)ethyl)carbamate], the inhibition at 1 µM in assay [1], in assay [2], in assay [3] and in assay [4] was < 25% each time. Also, the inhibition at 10 µM was 25 to 75% in assay [1], 25 to 75% in assay [2], 25 to 75% in assay [3] and < 25% in assay [4].

As to `Cc1cnn(C(=O)N(C)CCN(C)C(=O)OC(C)(C)C)c1` [Example 29, tert-Butyl (2-(N,4-dimethyl-1H-pyrazole-1-carboxamido)ethyl)(methyl)carbamate], the inhibition at 1 µM in assay [1], in assay [2], in assay [3] and in assay [4] was < 25% in each case. The inhibition at 10 µM in assay [1] was > 75%; in assay [2], 25 to 75%; in assay [3], 25 to 75%; in assay [4], < 25%.

Consider `O=C(NCCCc1ccccc1)n1cccn1` [Example 31, N-(3-Phenylpropyl)-1H-pyrazole-1-carboxamide], for which the inhibition at 10 µM in assay [1], in assay [2], in assay [3] and in assay [4] was < 25% each time.

Turning to `Cc1cnn(C(=O)NCCCc2ccccc2)c1` [Example 32, 4-Methyl-N-(3-phenylpropyl)-1H-pyrazole-1-carboxamide], the inhibition at 10 µM in assay [1], in assay [2], in assay [3] and in assay [4] was < 25% each time.

For `N#Cc1cnn(C(=O)NCCCc2ccccc2)c1` [Example 33, 4-Cyano-N-(3-phenylpropyl)-1H-pyrazole-1-carboxamide], the inhibition at 1 µM in assay [1], in assay [2], in assay [3] and in assay [4] was < 25% each time. The inhibition at 10 µM is < 25% in assay [1], > 75% in assay [2], < 25% in assay [3] and < 25% in assay [4].

On to `O=C(NCCCCc1ccccc1)n1cccn1` [Example 34, N-(4-Phenylbutyl)-1H-pyrazole-1-carboxamide], for which the inhibition at 10 µM in assay [1], in assay [2], in assay [3] and in assay [4] was < 25% each time.

For `Cc1cnn(C(=O)NCCCCc2ccccc2)c1` [Example 35, 4-Methyl-N-(4-phenylbutyl)-1H-pyrazole-1-carboxamide], the inhibition at 10 µM in assay [1], in assay [2], in assay [3] and in assay [4] was < 25% each time.

Regarding `N#Cc1cnn(C(=O)NCCCCc2ccccc2)c1` [Example 36, 4-Cyano-N-(4-phenylbutyl)-1H-pyrazole-1-carboxamide], the inhibition at 1 µM was < 25% in assay [1], 25 to 75% in assay [2], < 25% in assay [3] and < 25% in assay [4]. The inhibition at 10 µM in assay [1] was 25 to 75%; in assay [2], > 75%; in assay [3] it was 25 to 75%; in assay [4], < 25%.

For the molecule `O=C(NCCCCCc1ccccc1)n1cccn1` [Example 37, N-(5-phenylpentyl)-1H-pyrazole-1-carboxamide], the inhibition at 10 µM in assay [1], in assay [2], in assay [3] and in assay [4] was < 25% each time.

Take `Cc1cnn(C(=O)NCCCCCc2ccccc2)c1` [Example 38, 4-Methyl-N-(5-phenylpentyl)-1H-pyrazole-1-carboxamide]: the inhibition at 10 µM in assay [1], in assay [2], in assay [3] and in assay [4] was < 25% each time.

Turning to `N#Cc1cnn(C(=O)NCCCCCc2ccccc2)c1` [Example 39, 4-Cyano-N-(5-phenylpentyl)-1H-pyrazole-1-carboxamide], the inhibition at 1 µM in assay [1], in assay [2], in assay [3] and in assay [4] was < 25% in each case. Moreover, the inhibition at 10 µM in assay [1] is < 25%; in assay [2] it was > 75%; in assay [3], 25 to 75%; in assay [4], < 25%.

Values taken from US10093630B2, “Pyrazole compounds and methods of making and using same” (ABIDE THERAPEUTICS, INC., priority 2014, dated 2018).
